Experimental data from patent publication US20040038369A1, “Airway-specific trypsin-like enzymes and method of using the same” (priority 2000, published 2004).

What was measured:
IL-8 promoter = IL-8 promoter luciferase reporter assay in BEAS-2B; assay type: cell-based, human; details: HAST 300 mU/mL, 3 hours
Experimental: About 1.5 Kb and 162 bp of the promoter domains (Mukaida N. et al., J. Immunol., 143: 1366-1371, 1989) of IL-8 were cloned with LA-PCR (produced by Takara Shuzo Co.) using human genome DNA as a template, a forward primer: IL8-1481; […], a forward primer: IL8-162; […], a reverse primer: IL8LUC-R; […]. The PCR was carried out at 98° C. for 20 sec, at 58° C. for one minute and at 68° C. for 5 minutes in 25 cycles. The obtained DNA fragments of the promoter domains of about 1.5 Kb and about 0.25 Kb were named IL8-1481 and IL8-162, respectively.
A DNA fragment containing from ATG (translation-starting codon) to NarI site in the luciferase gene of pGL3-Basic (produced by Promega Corp.) was amplified by a PCR method using a forward primer: IL8LUC-F; […] and a reverse primer: LUC2087R; […]. This luciferase gene N-terminal DNA fragment was ligated to the IL8-1481 and the IL8-162 by a PCR method to obtain the PCR fragments IL8-1481-Luc (about 2 Kb) and IL8-162-Luc (about 800 bp). […]
The luciferase activity was assayed with Pica Gene Dual•Renilla reniformis (produced by Toyo Ink Co.,). […] First, 100 μL of Pica Gene luminescent reagent II was added, and the luminescence due to the firefly luciferase was assayed with a luminometer (LUMINOUS CT-9000D (produced by DIA-IATRON Corp.)). […]

BEAS-2B = assay: Calcium influx in airway epithelial cell strain BEAS-2B; assay type: cell-based; details: AST 2 units/mL; trypsin 10 to 100 units/mL; SFLLRNamide 100 μM
Experimental: The Ca^2+ influx due to the AST was examined with respect to an airway epithelial cell strain BEAS-2B. The confluent cells adhered to six 10 cm dishes were used. The cells were peeled with a 10 mM EDTA/HEPES-Tyrode buffer solution for 10 minutes, recovered by a centrifugal treatment at 1,500 rpm at room temperature for 5 minutes, and then resuspended in 10 mL of HEPES-Tyrode buffer solution-Ca^2+ (−) pH 7.4. The recovered cells (about 1.1×10^7 cells) were suspended in 11 mL of HEPES-Tyrode buffer solution (1 μg/mL, containing Fura2-AM) to load the Fura2-AM at 37° C. for 30 minutes. The cells were recovered by a centrifugal treatment at 1,500 rpm at room temperature for 5 minutes, twice washed with HEPES-Tyrode buffer solution-Ca^2+ (−) pH 7.4, and then resuspended in 11 mL of HEPES-Tyrode buffer solution-Ca^2+ (−) pH 7.4. The cell suspension was mixed with […] of 1M CaCl2 to give a final concentration of 1 mM CaCl2, and then incubated in a shaded state at room temperature for 5 minutes. The prepared Fura2-AM-loaded infected cells were dispensed into a 96 well plate in a volume of 100 μL/well, further subjected to the dispensation of HEPES-Tyrode buffer solution-Ca^2+ (+) pH 7.4 in a volume of 80 μL/well, and then assayed with Fluorescence Drug Screening System (Hamamatsu Photonics Co.). […]

production of the IL-8 at a transcription level (reporter activity) (IL-8 promoter): promoted
Substance: HAST: human airway-specific trypsin-like enzyme; propeptide moiety bound to trypsin-like protein moiety via a disulfide bond
Ca2+ influx (BEAS-2B): observed
